Source: PubChem BioAssay (NCI)
“And” between values parts separate entries of the source, which are not always exact repeats. Equal values may be shown once.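 How tested: cells in 96-well plates exposed to compound for 48 hours at five concentrations. Abbreviation: GI50, concentration required for 50% inhibition of growth. Definition used: TGI = concentration required for complete inhibition of growth.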

These molecules were tested on CCRF-CEM leukemia (assay: DTP human tumour cell line panel, 48 h).

| Structure (SMILES) | GI50 [µM] | TGI [µM] |
| --- | --- | --- |
| N#Cc1ccc(O)c(C2=NCC(c3cccc(Oc4ccccc4)c3)O2)c1 (stereo not given) | 0.555 | > 100 |
| O=C1Nc2c(C(F)(F)F)cccc2[C@]1(c1ccc(O)cc1)c1ccc(OC(F)(F)F)cc1 | 11.7 | 49.9 |
| CC(=O)OC[C@]1(C)C=C2C(=O)[C@](C)(O)C3(CC3)C(C)=C2[C@H]1O | 0.206 | > 100 |
| Oc1ccc(NCc2nc3ccccc3[nH]2)cc1 | > 100 | > 100 |
| C[C@]12CC[C@H]3[C@@H](CC=C4C[C@@H](O)CC[C@@]43C)[C@@H]1CC[C@@H]2N(CCO)CCO |  | > 100 |
| O=C1c2cc(Cl)ccc2S(=O)(=O)c2c(NCCCNCCO)nc3ccccc3c21 | 0.648 | 2.74 |
| CC(C)(C)OC(=O)N1CCc2c(sc3ncnc(N/N=C/c4cccc5ccccc45)c23)C1 | 3.6 | > 100 |
| CC[C@@H]1CN(C)[C@H]2Cc3c([nH]c4ccccc34)C(=O)C[C@H]1C2C(=O)OC (stereo not given in full) |  | > 100 |
| CCN(CC)c1ccc(/C=C/c2ccc3cc(C)ccc3[n+]2CC)cc1 | 0.299 | 29.9 |
| COc1ccc(/C=C/c2nccc3ccccc23)cc1OC |  | > 10 |
| COC1/C=C\C=C(/C)C(=O)NC2=CC(=O)C(=O)C(=C2O)CC(C)CC(OC)C(O)C(C)/C=C(\C)C1OC(N)=O (stereo not given) |  | 25.8 |
| O=c1[nH]ncc(Br)c1Br | 2.16 | 5.35 |

The molecules below were run on HCT-15 colon (assay: DTP human tumour cell line panel, 48 h).

| Structure (SMILES) | GI50 | TGI |
| --- | --- | --- |
| CC[C@]1(O)C[C@@H]2CN(CCc3c([nH]c4ccccc34)[C@@](C(=O)OC)(c3cc4c(cc3OC)N(C)[C@H]3[C@@](O)(C(=O)OC)[C@H](OC(C)=O)[C@]5(CC)C=CCN6CC[C@]43[C@@H]65)C2)C1 | < 0.0116 µM | 14.6 µM |
| N#CSc1c[nH]c2cccc(/C=C/C(=O)/C=C(/C=C/c3cccc4[nH]cc(SC#N)c34)OB(F)F)c12 | 0.315 µM | 1.49 µM |
| COc1cc([N+](=O)[O-])cc2c3c(n(C)c12)[C@@]1(C)CCC2c4ccc(OCc5ccccc5)cc4CCC2C1C3 (stereo not given in full) | 53.5 µM | > 100 µM |
| C=CC(=O)N1CC2(CCN(c3nc(OC4CCN(CCCOC)CC4)nc4c(OCC(F)(F)F)c(-c5c(C)ccc6[nH]ncc56)c(C5CC5)cc34)CC2)C1 | 1.66 µM | 3.21 µM |
| CC[C@@H]1C(=O)N(C)c2cnc(Nc3ccc(C(=O)NC4CCN(C)CC4)cc3OC)nc2N1C1CCCC1 | 0.186 µM and 0.219 µM | > 4.57 µM and 6.38 µM |
| C=C1C(=O)O[C@H]2[C@H]1CC/C(COC(=O)c1ccc3ccccc3c1)=C\CC[C@@]1(C)O[C@@H]21 | 0.394 µM | 1.66 µM |
| Nc1nc(Cl)c2ncn(Cc3ccc(C45CC6CC(CC(C6)C4)C5)c(O)c3)c2n1 | 8.78 µM | 25.5 µM |
| CC[CH2][Sn]([CH2]CC)([O]C(=O)c1cccnc1SC)[O][Sn]([CH2]CC)([CH2]CC)[O]C(=O)c1cccnc1SC | 0.246 µM | 0.998 µM |
| CC(C)c1nc(CN(C)C(=O)N[C@H](C(=O)N[C@@H](Cc2ccccc2)C[C@H](O)[C@H](Cc2ccccc2)NC(=O)OCc2cncs2)C(C)C)cs1 | 24.5 µM | > 100 µM |
| CC[C@@]1(O)C(=O)OCc2c1cc1n(c2=O)Cc2c-1nc1cc3c(cc1c2CCl)OCO3 | 0.192 µM | 12.3 µM |
| N#Cc1ccc(O)c(C2=NCC(c3cccc(Oc4ccccc4)c3)O2)c1 (stereo not given) | 0.363 µM | 36.1 µM |
| O=C1Nc2c(C(F)(F)F)cccc2[C@]1(c1ccc(O)cc1)c1ccc(OC(F)(F)F)cc1 | 9.43 µM | 23.3 µM |
| CC(=O)OC[C@]1(C)C=C2C(=O)[C@](C)(O)C3(CC3)C(C)=C2[C@H]1O | 0.0306 µM | 31.8 µM |
| Oc1ccc(NCc2nc3ccccc3[nH]2)cc1 | > 100 µM | > 100 µM |
| C[C@]12CC[C@H]3[C@@H](CC=C4C[C@@H](O)CC[C@@]43C)[C@@H]1CC[C@@H]2N(CCO)CCO |  | > 100 µM |
| O=C1c2cc(Cl)ccc2S(=O)(=O)c2c(NCCCNCCO)nc3ccccc3c21 | 0.926 µM | 2.35 µM |
| CC(C)(C)OC(=O)N1CCc2c(sc3ncnc(N/N=C/c4cccc5ccccc45)c23)C1 | 3.86 µM | > 100 µM |
| CC[C@@H]1CN(C)[C@H]2Cc3c([nH]c4ccccc34)C(=O)C[C@H]1C2C(=O)OC (stereo not given in full) |  | > 100 µM |
| CCN(CC)c1ccc(/C=C/c2ccc3cc(C)ccc3[n+]2CC)cc1 | 1.32 µM | 12.9 µM |
| COc1ccc(/C=C/c2nccc3ccccc23)cc1OC |  | > 10 µM |
| COC1/C=C\C=C(/C)C(=O)NC2=CC(=O)C(=O)C(=C2O)CC(C)CC(OC)C(O)C(C)/C=C(\C)C1OC(N)=O (stereo not given) |  | > 100 µM |
| O=c1[nH]ncc(Br)c1Br | 1.72 µM | 3.3 µM |

The molecules below were run on MALME-3M melanoma (assay: DTP human tumour cell line panel, 48 h).

| Structure (SMILES) | GI50 | TGI |
| --- | --- | --- |
| CC[C@]1(O)C[C@@H]2CN(CCc3c([nH]c4ccccc34)[C@@](C(=O)OC)(c3cc4c(cc3OC)N(C)[C@H]3[C@@](O)(C(=O)OC)[C@H](OC(C)=O)[C@]5(CC)C=CCN6CC[C@]43[C@@H]65)C2)C1 | < 0.01 µM | 14.1 µM |
| N#CSc1c[nH]c2cccc(/C=C/C(=O)/C=C(/C=C/c3cccc4[nH]cc(SC#N)c34)OB(F)F)c12 | 0.272 µM | 0.824 µM |
| COc1cc([N+](=O)[O-])cc2c3c(n(C)c12)[C@@]1(C)CCC2c4ccc(OCc5ccccc5)cc4CCC2C1C3 (stereo not given in full) | > 100 µM | > 100 µM |
| C=CC(=O)N1CC2(CCN(c3nc(OC4CCN(CCCOC)CC4)nc4c(OCC(F)(F)F)c(-c5c(C)ccc6[nH]ncc56)c(C5CC5)cc34)CC2)C1 | 1.66 µM | 3.14 µM |
| CC[C@@H]1C(=O)N(C)c2cnc(Nc3ccc(C(=O)NC4CCN(C)CC4)cc3OC)nc2N1C1CCCC1 | 1.12 µM and 1.37 µM | 2.57 µM and 3.39 µM |
| C=C1C(=O)O[C@H]2[C@H]1CC/C(COC(=O)c1ccc3ccccc3c1)=C\CC[C@@]1(C)O[C@@H]21 | 1.74 µM | 3.47 µM |
| Nc1nc(Cl)c2ncn(Cc3ccc(C45CC6CC(CC(C6)C4)C5)c(O)c3)c2n1 | 2.22 µM | 16.3 µM |
| CC[CH2][Sn]([CH2]CC)([O]C(=O)c1cccnc1SC)[O][Sn]([CH2]CC)([CH2]CC)[O]C(=O)c1cccnc1SC | 0.237 µM | 0.566 µM |
| CC(C)c1nc(CN(C)C(=O)N[C@H](C(=O)N[C@@H](Cc2ccccc2)C[C@H](O)[C@H](Cc2ccccc2)NC(=O)OCc2cncs2)C(C)C)cs1 | 22.1 µM | > 57 µM |
| CC[C@@]1(O)C(=O)OCc2c1cc1n(c2=O)Cc2c-1nc1cc3c(cc1c2CCl)OCO3 | 0.0629 µM | 2 µM |
| N#Cc1ccc(O)c(C2=NCC(c3cccc(Oc4ccccc4)c3)O2)c1 (stereo not given) | 1.83 µM | 7.76 µM |
| O=C1Nc2c(C(F)(F)F)cccc2[C@]1(c1ccc(O)cc1)c1ccc(OC(F)(F)F)cc1 | 13 µM | 26.6 µM |
| CC(=O)OC[C@]1(C)C=C2C(=O)[C@](C)(O)C3(CC3)C(C)=C2[C@H]1O | 0.124 µM | 0.302 µM |
| Oc1ccc(NCc2nc3ccccc3[nH]2)cc1 | 76.3 µM | > 100 µM |
| C[C@]12CC[C@H]3[C@@H](CC=C4C[C@@H](O)CC[C@@]43C)[C@@H]1CC[C@@H]2N(CCO)CCO |  | > 100 µM |
| O=C1c2cc(Cl)ccc2S(=O)(=O)c2c(NCCCNCCO)nc3ccccc3c21 | 1.19 µM | 2.56 µM |
| CC(C)(C)OC(=O)N1CCc2c(sc3ncnc(N/N=C/c4cccc5ccccc45)c23)C1 | 3.97 µM | 36.3 µM |
| CC[C@@H]1CN(C)[C@H]2Cc3c([nH]c4ccccc34)C(=O)C[C@H]1C2C(=O)OC (stereo not given in full) |  | > 100 µM |
| CCN(CC)c1ccc(/C=C/c2ccc3cc(C)ccc3[n+]2CC)cc1 | 0.149 µM | 1.33 µM |
| COc1ccc(/C=C/c2nccc3ccccc23)cc1OC |  | > 10 µM |
| COC1/C=C\C=C(/C)C(=O)NC2=CC(=O)C(=O)C(=C2O)CC(C)CC(OC)C(O)C(C)/C=C(\C)C1OC(N)=O (stereo not given) |  | 21.7 µM |
| O=c1[nH]ncc(Br)c1Br | 1.81 µM | 3.71 µM |
